From patent publication US20130330422A1, “METHODS FOR INCREASING INSULIN SENSITIVITY AND TREATING DIABETES WITH A BIOACTIVE CHROMIUM BINDING PEPTIDE” (The Board of Trustees of the University of Alabama, priority 2012, published 2013)
Non-standard residues stand in square brackets, D forms with d. No end group written: not given here. pGlu = O=C1CC[C@@H](C(=O)O)N1

Experiments:
[1] = Chromium binding studies: ultrafiltration equilibrium dialysis with 51CrCl3, Langmuir isotherms and Hill plots; details: for Langmuir parameter Bt / Langmuir parameter K: Cr^3+ binding, 0.1 mol/L Hepes pH 7.4, 4° C.; for Co-operativity / Kf (Hill plot binding of formation constant) / n (Hill constant): chromium(III) binding, Hill plot; for chromium:oligopeptide ratio at the intersection point of the Langmuir isotherm (number of tightly binding ions): estimated from Langmuir isotherm
Protocol: A variation of the equilibrium dialysis method using an ultrafiltration device was utilized to examine the binding of chromium to the synthetic peptides. Aliquots of a mixture of CrCl3 and ^51CrCl3 were combined to generate different concentrations of Cr(III) while maintaining the synthetic peptide in solution at a constant volume. Known amounts (approximately 0.46 μmol) of peptide and 200 mL of 0.1 mol/L Hepes buffer (pH 7.4) were slowly stirred in an Amicon 8400 ultrafiltration unit (with a YC05 membrane) at 4° C. temperature for at least 12 h to achieve equilibration. The ultrafiltration unit was then pressurized, and effluent was collected. The content of free chromic ion in the effluent was determined by gamma counting using a Packard Cobra II auto-gamma counter. Chromium binding experiments were performed in triplicate, and the synthetic peptide used in at least one of the three sets of triplicates was from a different synthesis. As a control for the chromium-binding experiments, the ultrafiltration procedure was performed without peptide to establish the amount of chromium that adhered to the ultrafiltration unit; all experiments were corrected for this background. Linear regression analyses of the Langmuir isotherms and Hill plots were performed using SigmaPlot 11.0. The Cr concentration of solutions of isolated peptides were determined by graphite furnace atomic absorption spectroscopy using a PerkinElmer Analyst 400 atomic absorption spectrometer equipped with an HGA-900 graphite furnace and an AS-800 autosampler using a chromium hollow cathode lamp operating at 10 mA; a spectral bandwidth of 0.8 nm was selected to isolate the light at 353.7 nm. Chromium standard solution obtained from Perkin Elmer (Waltham, Mass.) was utilized to generate a standard curve.
Errors are presented throughout as standard deviations of the triplicate analyses. Doubly deionized H2O was used throughout. Amino acid analyses of samples were performed by the Protein and Separation Analysis Laboratory at Purdue University. Protein concentrations were determined by the fluorescamine method (Davis et al. “Isolation and characterization of a biologically active form of chromium oligopeptide from bovine liver,” Arch Biochem Biophys. 1997; 339:335-343.) Fluorescence measurements were obtained on a Jobin Yvon FluoroMax-3 fluorescence spectrophotometer. Ultraviolet-visible spectra were obtained using a Hewlett-Packard 8451A or a Beckman Coulter DU 800 spectrophotometer.
As chromium binding to the oligopeptide LMWCr is believed to be through only carboxylate residues and the heptapeptide pEEEEGDD (SEQ ID NO: 1) retains all the aspartate and glutamate residues in LMWCr, whether the heptapeptide can bind chromium in a similar fashion to LMWCr was investigated. The binding of chromium to bovine apoLMWCr prepared by the low pH EDTA method (Davis and Vincent), the heptapeptide pEEEEGDD (SEQ ID NO: 1), and two other acidic peptides was probed. […] The number of Cr^3+ ions binding to the peptides was estimated using Langmuir isotherms. For the Langmuir isotherms of Cr^3+ binding to all the synthetic peptides, Cr binding to apoLMWCr can be represented by two intersecting straight lines with different slopes (FIG. 5)). […] Negative values of the Langmuir parameters Bt and K were found for each peptide: apoLMWCr, −2.69 mmol/g and −109 L/mmol, respectively; EDGEECDCGE (SEQ ID NO: 41), −6.97 mmol/g and −354 L/mmol; DGEECDCGEE (SEQ ID NO: 42), −62.9 mmol/g and −9.94 L/mmol; and pEEEEGDD (SEQ ID NO: 1), −0.73 mmol/g and −151 L/mmol.
To further compare the binding properties between the synthetic peptides and apoLMWCr in CrCl3 solution, the method of Hill was applied to establish the degree of cooperativity between the covalent binding sites with the initial low amounts of substrate in solution, assuming covalent binding sites are occupied before surface adsorption occurs. The total number of tight binding sites established using the Langmuir isotherm was utilized. […]

[2] = Cr:peptide binding ratio after exposure to 10 equivalents of Cr^3+ and G-10 size exclusion chromatography; details: 0.1 mol/L hepes pH 7.4, overnight at 4° C., G-10 separation
Description: The intersection points in the isotherms allow the number of tightly binding ions to be estimated. For bovine apoLMWCr, the chromium:oligopeptide ratio at the intersection point is 3.6, which is very close to the average amount of chromium bound to isolated bovine LMWCr, which is 3.5. Titration of bovine LMWCr with Cr^3+ has previously shown that four Cr^3+ ions are required to restore bioactivity. For the synthetic peptides, the intersection points occurred at Cr:peptide ratios of approximately 2, 2, and 4 for EDGEECDCGE (SEQ ID NO: 41), DGEECDCGEE (SEQ ID NO: 42) and pEEEEGDD (SEQ ID NO: 1) (FIG. 6), respectively. This is consistent with the Crpeptides binding ratios found after exposing the peptides to solutions of 10 equivalents of Cr^3+ (CrCl3.6H2O in 0.1 mol/L hepes buffer, pH 7.4 overnight at 4° C.) and separating the peptides from the excess Cr^3+ by G-10 size exclusion chromatography (EDGEECDCGE (SEQ ID NO: 41): 2.0(±0.3), and DGEECDCGEE (SEQ ID NO: 42): 2.0±0.3). A change in mode from specific coordinate covalent binding to just electrostatic absorption on the peptide surface is proposed. Thus, the inflection point of the isotherm for the peptide pEEEEGDD (SEQ ID NO: 1) implies that it tightly binds four Cr^3+ ions. […] The two visible features are readily assigned to d→d transitions from the Cr^3+ centers. […]

[3] = test system: cultured myotubes; assay: Insulin-stimulated 2-[3H]-deoxyglucose uptake in cultured myotubes; format: cell-based; details: peptide 10 mM and/or chromium 1 h, insulin 50 nM 10 min; 10 mM or 25 mM glucose overnight
Protocol: Myotubes were incubated with the peptide (10 mM) and/or chromium for 1 h and stimulated with insulin (50 nM) for 10 min, and 2-[^3H]-deoxyglucose uptake was assessed. Data represent mean counts per minute (cpm)/mg protein/30 min±SE (n=3). *p<0.01 compared to basal low glucose conditions. **p<0.01 compared to insulin-stimulated low glucose conditions. ***p<0.001 compared to high glucose conditions.

[4] = Insulin-stimulated glucose uptake in vivo, tail-vein peptide then intraperitoneal glucose; details: peptide 5 μmol/kg alone or premixed with equimolar chromium via tail-vein; glucose 2 g/kg intraperitoneally
Protocol: The peptide (5 μmol/kg) either alone or premixed with equimolar concentrations of chromium were injected via tail-vein, immediately following which glucose (2 g/kg body weight) was administered intraperitoneally (*p<0.05, n=6-8).

[5] = test system: Akt; assay: Insulin-stimulated phosphorylation of Akt in cultured myotubes (Western blot); format: cell-based; details: peptide and/or chromium (1 μM) 1 h, insulin 5 nm
Protocol: Myotubes were incubated with the peptide and/or chromium (1 μM) for 1 h and stimulated with insulin 5 nm. (A) Representative Western blots of p^308-Akt and Akt, and (B) Densitometric quantitation of the Western blots. Data represent mean±SE (n=3), *p<0.001 versus control **p<0.01 compared to insulin-stimulated glucose uptake (panel A). *p<0.001 versus control ^#p<0.05 compared to insulin-stimulated glucose uptake in untreated cells (panel B).

Row | Substance | Langmuir parameter Bt [1] [mmol/g] | Langmuir parameter K [1] [L/mmol] | Co-operativity [1] | Kf (Hill plot binding of formation constant) [1] | n (Hill constant) [1] | chromium:oligopeptide ratio at the intersection point of the Langmuir isotherm (number of tightly binding ions) [1] | Cr:peptide binding ratio [2] | insulin-stimulated glucose uptake in cultured myotubes [3] | insulin-stimulated glucose uptake in vivo [4] | insulin-stimulated phosphorylation of Akt (p308-Akt) [5]
1 | [pGlu]EEEGDD | -0.73 | -151 | Positively co-operative | 1.92 × 10^20 (mol/L)^−4 | 3.82 | ~4 | – | – | – | –
2 | EDGEECDCGE [synthetic acidic peptide with the same amino acid composition as bovine LMWCr] | -6.97 | -354 | Positively co-operative | 1.48 × 10^23 (mol/L)^−2 | 3.64 | approximately 2 | 2.0(±0.3) | – | – | –
3 | EEEEGDD | – | – | – | – | – | – | – | augments insulin-stimulated glucose uptake | augments insulin-stimulated glucose uptake in vivo | improves insulin-stimulated phosphorylation of Akt
4 | DGEECDCGEE [synthetic acidic peptide with the same amino acid composition as bovine LMWCr] | -62.9 | -9.94 | Positively co-operative | 1.01 × 10^11 (mol/L)^−2 | 1.85 | approximately 2 | 2.0±0.3 | – | – | –
